{"source": "paper PMC12087874", "about": "“Biaryl Phosphates and Phosphonates as Selective Inhibitors of the Transcription Factor STAT4” (Angewandte Chemie (International Ed. in English), 2025)", "format_in_all_cases": "binding", "key": {"STAT5a": {"target": "T1, STAT5a (Homo sapiens, UniProt P42229)", "T1 sequence (P42229 1-794)": "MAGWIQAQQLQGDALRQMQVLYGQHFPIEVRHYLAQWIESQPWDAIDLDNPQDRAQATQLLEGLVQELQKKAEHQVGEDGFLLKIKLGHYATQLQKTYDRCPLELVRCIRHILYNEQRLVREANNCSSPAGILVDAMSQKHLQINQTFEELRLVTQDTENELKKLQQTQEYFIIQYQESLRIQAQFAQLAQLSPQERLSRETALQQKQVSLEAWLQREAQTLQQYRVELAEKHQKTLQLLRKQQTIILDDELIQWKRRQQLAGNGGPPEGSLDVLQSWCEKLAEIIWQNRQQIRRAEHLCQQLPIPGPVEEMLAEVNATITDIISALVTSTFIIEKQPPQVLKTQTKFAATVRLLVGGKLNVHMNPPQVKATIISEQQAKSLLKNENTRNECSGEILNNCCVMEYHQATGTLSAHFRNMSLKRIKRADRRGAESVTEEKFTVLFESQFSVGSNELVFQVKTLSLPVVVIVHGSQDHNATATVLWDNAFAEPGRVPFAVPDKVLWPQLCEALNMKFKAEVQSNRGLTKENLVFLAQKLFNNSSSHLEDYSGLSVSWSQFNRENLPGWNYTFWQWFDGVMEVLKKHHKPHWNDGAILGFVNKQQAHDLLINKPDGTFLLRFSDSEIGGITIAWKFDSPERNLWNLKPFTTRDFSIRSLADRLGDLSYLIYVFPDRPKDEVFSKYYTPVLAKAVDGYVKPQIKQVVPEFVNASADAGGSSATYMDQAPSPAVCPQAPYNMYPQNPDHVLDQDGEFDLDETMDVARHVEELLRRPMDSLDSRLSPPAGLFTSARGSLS", "experiment": "Competitive fluorescence polarization (FP) assay, STAT5a SH2 domain", "settings": "for Ki: Ki derived from IC50; for IC50: mean ± SD, n = 3", "experimental": "(§1) Fluorescence polarization assays\n(§2) Competitive fluorescence polarization assays, which measure the abilities of test compounds (dissolved in DMSO) to displace a fluorescent-labeled peptide from the SH2 domain of a STAT protein, were carried out essentially as described. Proteins were used at the following final concentrations: 23 nM or 28 nM for STAT4; between 56 nM and 91 nM for STAT1; 107 nM or 110 nM for STAT3; between 131 nM and 177 nM for STAT5a; between 62 nM and 85 nM for STAT5b; and 101 nM or 106 nM for STAT6. These concentrations represent the approximate […]\n(§3) dissociation constant for peptide binding of the respective protein batches used in the assays.\n(§4) The following peptides were used: 5-carboxyfluorescein-GpYLPQNID-OH for STAT4; 5-carboxyfluorescein-GpYDKPHVL for STAT1; 5-carboxyfluorescein-GpYLPQTV-NH2 for STAT3; 5-carboxyfluorescein-GpYLVLDKW for STAT5a/b, and 5-carboxyfluorescein- […]\n(§5) Gp[…]-OH for STAT6. All peptides were used at a final concentration of 10 nM. The buffer consisted of 10 mM Tris (pH 8.0), 50 mM NaCl, 1 mM EDTA, 1 mM DTT, 0 .1 % Nonidet P-40 substitute, and 2 % DMSO. After incubation of protein and test compound for 1 h at room temperature, the fluorescent -labeled peptide was added. Samples were transferred to 384 - well microtiter plates and fluorescence polarization was read after an additional 60 min of incubation time. Measurements were performed in triplicate. Percent binding was calculated based on a logarithmic curve fit using OriginPro 8G software. IC 50 values were converted to Ki-values via the published equation[3] using the corresponding Excel spread sheet […]\n(§6) https://websites.umich.edu/~shaomengwanglab/software/calc_ki/index.html .\n(§7) Error bars represent standard deviations. Ligand efficiencies (LE) were calculated by the formula LE = -1,37 x log Ki / number of non-hydrogen atoms.[4] […]"}, "STAT3": {"target": "STAT3 (Homo sapiens, UniProt P40763)", "sequence (P40763 whole entry, species assumed, the tested form may be a part)": "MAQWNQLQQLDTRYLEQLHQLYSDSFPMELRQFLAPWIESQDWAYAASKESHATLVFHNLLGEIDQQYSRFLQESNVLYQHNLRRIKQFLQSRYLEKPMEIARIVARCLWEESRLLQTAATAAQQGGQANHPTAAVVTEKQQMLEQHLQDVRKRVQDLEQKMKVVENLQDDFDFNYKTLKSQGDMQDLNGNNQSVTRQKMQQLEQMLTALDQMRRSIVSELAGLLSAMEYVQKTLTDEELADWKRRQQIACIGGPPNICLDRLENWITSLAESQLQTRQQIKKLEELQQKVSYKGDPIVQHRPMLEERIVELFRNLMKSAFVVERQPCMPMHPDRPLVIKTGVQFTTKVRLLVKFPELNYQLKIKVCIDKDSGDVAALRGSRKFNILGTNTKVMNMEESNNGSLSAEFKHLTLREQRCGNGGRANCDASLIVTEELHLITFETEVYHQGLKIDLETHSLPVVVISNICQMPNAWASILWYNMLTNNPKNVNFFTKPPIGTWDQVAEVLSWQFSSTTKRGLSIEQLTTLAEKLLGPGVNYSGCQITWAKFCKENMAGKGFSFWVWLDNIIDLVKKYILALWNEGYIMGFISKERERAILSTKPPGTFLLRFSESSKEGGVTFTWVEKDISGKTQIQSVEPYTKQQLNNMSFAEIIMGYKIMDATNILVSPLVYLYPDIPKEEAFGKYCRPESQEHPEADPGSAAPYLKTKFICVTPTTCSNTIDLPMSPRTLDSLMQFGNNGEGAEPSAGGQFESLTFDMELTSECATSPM", "experiment": "Competitive fluorescence polarization (FP) assay, STAT3 SH2 domain", "settings": "for IC50: mean ± SD, n = 3; for Ki: tracer 5-carboxyfluorescein-GpYLPQTV-NH2, Ki derived from IC50", "experimental": "as §1, §2, §3, §4, §5, §6, §7"}, "STAT1": {"target": "T2, STAT1 (Homo sapiens, UniProt P42224)", "T2 sequence (P42224 1-750)": "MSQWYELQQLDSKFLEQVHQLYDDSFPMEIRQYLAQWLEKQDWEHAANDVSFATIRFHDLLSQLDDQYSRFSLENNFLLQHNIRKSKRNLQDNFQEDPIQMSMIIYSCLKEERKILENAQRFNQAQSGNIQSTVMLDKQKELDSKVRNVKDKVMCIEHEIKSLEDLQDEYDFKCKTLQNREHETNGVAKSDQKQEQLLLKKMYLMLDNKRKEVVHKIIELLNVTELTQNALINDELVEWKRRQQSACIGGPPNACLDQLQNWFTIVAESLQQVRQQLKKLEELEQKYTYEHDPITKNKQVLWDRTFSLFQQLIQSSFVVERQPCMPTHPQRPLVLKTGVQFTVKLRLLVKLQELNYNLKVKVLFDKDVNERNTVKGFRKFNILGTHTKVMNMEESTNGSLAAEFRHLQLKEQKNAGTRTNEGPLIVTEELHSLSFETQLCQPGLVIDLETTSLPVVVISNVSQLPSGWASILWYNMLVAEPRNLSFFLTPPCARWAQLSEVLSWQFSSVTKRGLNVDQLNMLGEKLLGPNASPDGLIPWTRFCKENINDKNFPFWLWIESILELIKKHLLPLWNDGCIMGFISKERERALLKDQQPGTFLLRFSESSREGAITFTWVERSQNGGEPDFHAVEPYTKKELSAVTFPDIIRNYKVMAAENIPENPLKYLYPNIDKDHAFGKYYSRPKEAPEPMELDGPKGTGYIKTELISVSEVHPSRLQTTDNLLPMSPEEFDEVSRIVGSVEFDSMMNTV", "experiment": "Competitive fluorescence polarization (FP) assay, STAT1 SH2 domain", "settings": "for IC50: mean ± SD, n = 3; for Ki: tracer 5-carboxyfluorescein-GpYDKPHVL, Ki derived from IC50", "experimental": "as §1, §2, §3, §4, §5, §6, §7"}}, "data": [{"compound": "O=P(O)(O)Oc1ccc(-c2ccc3ccccc3c2)cc1", "note": "[Compound 6g]", "values": [{"measurement": "Ki", "setting": "STAT5a", "value": "27 ± 2", "unit": "µM"}, {"measurement": "IC50", "setting": "STAT5a", "value": "55 ± 4", "unit": "µM"}, {"measurement": "IC50", "setting": "STAT3", "value": "37 ± 2", "unit": "µM"}, {"measurement": "Ki", "setting": "STAT3", "value": "18 ± 1", "unit": "µM"}, {"measurement": "IC50", "setting": "STAT1", "value": "22 ± 2", "unit": "µM"}, {"measurement": "Ki", "setting": "STAT1", "value": "11 ± 1", "unit": "µM"}]}, {"compound": "O=P(O)(O)Oc1ccc(-c2ccc3ccccc3c2)cc1F", "note": "[Compound 6m]", "values": [{"measurement": "Ki", "setting": "STAT5a", "value": "22 ± 1", "unit": "µM"}, {"measurement": "IC50", "setting": "STAT5a", "value": "45 ± 2", "unit": "µM"}, {"measurement": "IC50", "setting": "STAT3", "value": "10 ± 1", "unit": "µM"}, {"measurement": "Ki", "setting": "STAT3", "value": "5 ± 0.5", "unit": "µM"}, {"measurement": "IC50", "setting": "STAT1", "value": "7.8 ± 0.6", "unit": "µM"}, {"measurement": "Ki", "setting": "STAT1", "value": "3.8 ± 0.3", "unit": "µM"}]}, {"compound": "O=P(O)(O)Oc1ccc(-c2ccccc2)cc1F", "note": "[Compound 6h]", "values": [{"measurement": "Ki", "setting": "STAT5a", "value": "28 ± 1", "unit": "µM"}, {"measurement": "IC50", "setting": "STAT5a", "value": "57 ± 2", "unit": "µM"}, {"measurement": "IC50", "setting": "STAT3", "value": "9.1 ± 0.6", "unit": "µM"}, {"measurement": "Ki", "setting": "STAT3", "value": "4.5 ± 0.3", "unit": "µM"}, {"measurement": "IC50", "setting": "STAT1", "value": "13 ± 1", "unit": "µM"}, {"measurement": "Ki", "setting": "STAT1", "value": "6.3 ± 0.6", "unit": "µM"}]}, {"compound": "O=P(O)(O)Oc1ccc(-c2ccccc2)cc1", "note": "[Compound 1, para‐biphenyl phosphate]", "values": [{"measurement": "Ki", "setting": "STAT5a", "value": "22 ± 2", "unit": "µM"}, {"measurement": "IC50", "setting": "STAT5a", "value": "42 ± 4", "unit": "µM"}, {"measurement": "IC50", "setting": "STAT3", "value": "18 ± 3", "unit": "µM"}, {"measurement": "Ki", "setting": "STAT3", "value": "8.4 ± 1", "unit": "µM"}, {"measurement": "IC50", "setting": "STAT1", "value": "16 ± 3", "unit": "µM"}, {"measurement": "Ki", "setting": "STAT1", "value": "8.1 ± 1.4", "unit": "µM"}]}, {"compound": "O=P(O)(O)C(F)(F)c1ccc(-c2ccc3ccccc3c2)cc1F", "note": "[Compound 8a]", "values": [{"measurement": "Ki", "setting": "STAT5a", "value": "27 ± 1", "unit": "µM"}, {"measurement": "IC50", "setting": "STAT5a", "value": "54 ± 3", "unit": "µM"}, {"measurement": "IC50", "setting": "STAT3", "value": "44 ± 2", "unit": "µM"}, {"measurement": "Ki", "setting": "STAT3", "value": "22 ± 1", "unit": "µM"}, {"measurement": "IC50", "setting": "STAT1", "value": "63 ± 3", "unit": "µM"}, {"measurement": "Ki", "setting": "STAT1", "value": "36 ± 2", "unit": "µM"}]}, {"compound": "Cc1cc(-c2ccc(C(F)(F)P(=O)(O)O)c(F)c2)cs1", "note": "[Compound 8k]", "values": [{"measurement": "Ki", "setting": "STAT5a", "value": "39 ± 1", "unit": "µM"}, {"measurement": "IC50", "setting": "STAT5a", "value": "79 ± 2", "unit": "µM"}, {"measurement": "IC50", "setting": "STAT3", "value": "31 ± 4", "unit": "µM"}, {"measurement": "Ki", "setting": "STAT3", "value": "15 ± 2", "unit": "µM"}, {"measurement": "IC50", "setting": "STAT1", "value": "48 ± 4", "unit": "µM"}, {"measurement": "Ki", "setting": "STAT1", "value": "24 ± 2", "unit": "µM"}]}]}
